Measurements taken from article PMC4222540 (Biochemistry, 2014).
Numbering of substitutions follows the chain as printed.

How the values were obtained:
[1] = target: T1, cPAH D139E (Chromobacterium violaceum, UniProt P30967, D139E); experiment: Steady-state kinetics of phenylalanine hydroxylation; assay type: biochemical
T1 sequence (P30967 1-297 D139E): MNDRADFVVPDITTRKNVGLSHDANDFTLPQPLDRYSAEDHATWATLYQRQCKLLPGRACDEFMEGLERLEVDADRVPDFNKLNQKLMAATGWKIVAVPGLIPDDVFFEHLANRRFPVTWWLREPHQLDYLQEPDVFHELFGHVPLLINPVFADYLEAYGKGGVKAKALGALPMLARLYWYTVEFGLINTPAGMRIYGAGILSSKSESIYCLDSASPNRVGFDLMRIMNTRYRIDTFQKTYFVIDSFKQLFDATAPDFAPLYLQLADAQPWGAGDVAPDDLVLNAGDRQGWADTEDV

[2] = target: T2, wild-type cPAH (Chromobacterium violaceum, UniProt P30967); conditions: cited from earlier work
T2 sequence (P30967 1-297): T1 sequence (P30967 1-297 D139E) with E139D

[3] = target: T3, cPAH D139N (Chromobacterium violaceum, UniProt P30967, D139N); experiment: ITC, L-Phe binding to iron-reconstituted enzyme with excess BH4
T3 sequence (P30967 1-297 D139N): T1 sequence (P30967 1-297 D139E) with E139N

[4] = target: T3, cPAH D139N; experiment: Steady-state kinetics of phenylalanine hydroxylation; assay type: biochemical
[5] = target: T4, cPAH D139A (Chromobacterium violaceum, UniProt P30967, D139A); experiment: as above; assay type: biochemical
T4 sequence (P30967 1-297 D139A): T1 sequence (P30967 1-297 D139E) with E139A

[6] = target: T4, cPAH D139A; experiment: ITC, L-Phe binding to iron-reconstituted enzyme with excess BH4
[7] = target: T5, cPAH D139K (Chromobacterium violaceum, UniProt P30967, D139K); experiment: as above
T5 sequence (P30967 1-297 D139K): T1 sequence (P30967 1-297 D139E) with E139K

[8] = target: T1, cPAH D139E; experiment: as above
[9] = D139N, 1 mM Phe into 50 μM protein, 50 μM FeSO4, 200 μM BH4, anaerobic, 25 °C
[10] = D139A, 1 mM Phe into 50 μM protein, 50 μM FeSO4, 200 μM BH4, anaerobic, 25 °C
[11] = D139K, 1 mM Phe into 50 μM protein, 50 μM FeSO4, 200 μM BH4, anaerobic, 25 °C
[12] = D139E, 1 mM Phe into 50 μM protein, 50 μM FeSO4, 200 μM BH4, anaerobic, 25 °C

N[C@@H](Cc1ccccc1)C(=O)O [L-Phe, phenylalanine]
fold decrease in kcat/KM for phenylalanine vs wild type [1]: 7 fold | Kd [2]: 37 ± 0.3 µM | N (ITC stoichiometry) [2]: 0.8 | ΔH [2]: –7.9 ± 0.8 kcal mol^–1 | ΔS [2]: –6 cal mol^–1 | Kd [3]: 37 ± 3.7 µM | N (ITC stoichiometry) [3, 9]: 0.9 | ΔH [3, 9]: –8.5 ± 0.7 kcal mol^–1 | ΔS [3, 9]: –8 cal mol^–1 | fold decrease in kcat/KM for phenylalanine vs wild type [4]: 17 fold | fold decrease in kcat/KM for phenylalanine vs wild type [5]: 81 fold | Kd [6]: 39 ± 12 µM | N (ITC stoichiometry) [6, 10]: 1 | ΔH [6, 10]: –10.5 ± 1.9 kcal mol^–1 | ΔS [6, 10]: –15 cal mol^–1 | Kd [7]: 31 ± 5 µM | N (ITC stoichiometry) [7, 11]: 0.8 | ΔH [7, 11]: –9.4 ± 1.3 kcal mol^–1 | ΔS [7, 11]: –11 cal mol^–1 | Kd [8]: 55 ± 18 µM | N (ITC stoichiometry) [8, 12]: 0.6 | ΔH [8, 12]: –13.2 ± 6.0 kcal mol^–1 | ΔS [8, 12]: –25 cal mol^–1
